Holding throughout (format): functional
Experiment [1] has as its system Bifidobacterium thermophilum. Nature of the experiment: Antibacterial activity against Bifidobacterium thermophilum B0219 by broth microdilution method. A general note: Broth dilution looks for growth in wells or tubes with falling amounts of substance.
For experiment [2], the system named is Bifidobacterium thermophilum. Description: Antibacterial activity against Bifidobacterium thermophilum B0241 by broth microdilution method.
The subject of experiment [3] is Bifidobacterium thermophilum. Description: Antibacterial activity against Bifidobacterium thermophilum B0256 by broth microdilution method.
Experiment [4] concerns Bifidobacterium thermophilum. Nature of the experiment: Antibacterial activity against Bifidobacterium thermophilum B0253 by broth microdilution method.
Experiment [5] relates to Bifidobacterium thermophilum. Description: Antibacterial activity against Bifidobacterium thermophilum B0242 by broth microdilution method.
A further experiment deals with Lactobacillus johnsonii. Nature of the experiment: Antibacterial activity against Lactobacillus johnsonii L0077 by Etest.

The MIC is the lowest concentration found to suppress growth.

≈ marks a conversion by molar mass, not a printed value.

`CN(C)[C@@H]1C(O)=C(C(N)=O)C(=O)[C@@]2(O)C(O)=C3C(=O)c4c(O)cccc4[C@@](C)(O)[C@H]3C[C@@H]12` [TETRACYCLINE]: the MIC in experiment [1] was 128 µg/mL (≈ 288 µM); in experiment [2], 128 µg/mL (≈ 288 µM); in experiment [3], 128 µg/mL (≈ 288 µM); in experiment [4], 128 µg/mL (≈ 288 µM); in experiment [5], 256 µg/mL (≈ 576 µM); against Lactobacillus johnsonii it was greater than 256 µg/mL.

The values are drawn from ChEMBL document CHEMBL1151462, “Mosaic tetracycline resistance genes and their flanking regions in Bifidobacterium thermophilum and Lactobacillus johnsonii” (2008).
